Laboratory results: US6245757A, “Use of progestins to treat ischemic event” (priority 1998, dated 2001)

Columns and labels:
stroke patients = conditions: cited from earlier work
[1] = Physiological variables (blood pH, pCO2, pO2, blood pressure) before and after injection, rat MCAO; assay type: in vivo, Male Wistar rats; conditions: for Mean Blood Pressure / pCO2 / pH / pO2: n=12, mean ± S.E.M.
[2] = tested on: middle cerebral artery occlusion (MCAO) rats; assay: Infarct volume after MCAO (TTC staining), Example 1; assay type: in vivo, Male Wistar rats; conditions: for % Infarct volume (to the contralateral hemisphere): 48 h post MCAO, n=12, mean ± S.E.M., DMSO group 35.1 ± 4.5; for decrease of percent infarct volume compared with DMSO treated control group: 4.0 mg/kg i.p.
[3] = tested on: middle cerebral artery occlusion rats; conditions: one hour prior to MCAO; early stages of ischemia; cited from earlier work
global cerebral ischemia = conditions: 7-day pretreatment; cited from earlier work
cerebral contusion = conditions: one hour after the cerebral trauma; cited from earlier work
[4] = circulating PROG; cited from earlier work
GABA receptor [5] = conditions: physiological levels of PROG, in vivo; cited from earlier work
[6] = tested on: central nervous system (CNS); conditions: cited from earlier work
GABA receptor [7] = conditions: neurons; cited from earlier work
in vivo = conditions: rat, ip, 4 mg/kg, plasma level of PROG
[8] = Body weight loss after MCAO, Example 1; conditions: for Body weight loss: mean ± S.E.M.
Experimental: (§1) Briefly, the right common carotid artery, external carotid artery (ECA) and internal carotid artery (ICA) were exposed. A length of 4-0 monofilament nylon suture (18.5-19.5 mm), determined by the animal weight, with its tip rounded by heating near a flame, was advanced from the ECA into the lumen of the ICA until it blocked the origin of the MCA. Two hours after MCAO, animals were reanaesthetized with halothane and reperfusion was performed by withdrawal of the suture until the tip cleared the lumen of the ICA.
(§2) Four randomly assigned populations of animals were tested. Group 1 (n=12): water soluble PROG (PROG with balance of 2-hydroxypropyl-β-cyclodextrin) (Sigma Chemical Co., St Louis, Mo.) dissolved in saline (4.0 mg/ml) was injected intraperitoneally (4.0 mg/kg) 30 minutes before MCAO. The remaining injections (all 4.0 mg/kg) were given at 6 and 24 hours after MCAO, respectively. Group 2 (n =12): the experimental protocol was identical to that in Group 1, except that PROG (4-pregnene-3,20-dione) (Sigma Chemical Co., St Louis, Mo.) dissolved in dimethyl sulfoxide (DMSO; Sigma Chemical Co., St Louis, Mo.) (8.0 mg/ml), instead of water soluble PROG, was administered. Group 3 (n=12): the experimental protocol was identical to that in group 2, except that the initial injection was delayed to the onset of reperfusion (2 hours after MCAO). Group 4 (n=12): the experimental protocol was the same as that in Group 2, except that the same volume of DMSO without PROG (0.5 ml/kg) as in Group 2 was administered.
(§3) All animals were weighed before surgery for MCAO and at 24 and 48 hours after MCAO. Neurological abnormalities were also evaluated 24 and 48 hours after MCAO using the scale (0-4) described by Z. Longa et al., Stroke, 20, 84 (1989). Rats were held gently by the tail, suspended one meter above the floor, and observed for forelimb flexion. […] Rats that consistently flexed the left forelimb (contralateral to the injured hemisphere) accompanying flexion of the wrist toward left without any other abnormality were graded 1. Rats that were allowed to move about freely and circled toward the paretic side consistently were graded 2. Rats that fell down to the left losing the ability to walk were graded 3.
(§4) For parametric variables, a one way ANOVA was applied to determine the statistical significance of differences among groups. If a significant difference was detected, then two sample t-tests with Bonferroni correction were performed to evaluate differences between control and PROG treated groups. Paired t-tests were performed on physiological parameters before and after administration of PROG and DMSO within each group. Values presented in this study are mean ±S.E.M. A probability value less than 0.05 was considered significant.

[9] = tested on: middle cerebral artery occlusion (MCAO) rats; assay: Neurological deficit score after MCAO (Zea Longa scale 0-4), Example 1; conditions: for Neurologic Score: scale 0-4, mean ± S.E.M., DMSO group 1.8 ± 0.1
Experimental: as §1, §2, §3, §4

[10] = 20 min post-injection, 4.0 mg/kg i.p. 30 min before MCAO
[11] = 20 min post-injection, 4.0 mg/kg i.p. 2 h after MCAO
[12] = pre-injection, group 4.0 mg/kg i.p. 30 min before MCAO
[13] = pre-injection, group 4.0 mg/kg i.p. 2 h after MCAO
[14] = both groups of regular PROG treated animals (pre- and post-MCAO), 4.0 mg/kg i.p.

Which “outcome, steroid vs non-steroid treated patients” value (stroke patients) does the source give for `C[C@@H]1C[C@H]2[C@@H]3CCC4=CC(=O)C=C[C@]4(C)[C@@]3(F)[C@@H](O)C[C@]2(C)[C@@]1(O)C(=O)CO` [dexamethasone] here?
Its value is “no significant difference in outcome”.

Which “Mean Blood Pressure” value [1, 10] does the source give for `CC(=O)[C@H]1CC[C@H]2[C@@H]3CCC4=CC(=O)CC[C@]4(C)[C@H]3CC[C@]12C` [PROG, 4-pregnene-3,20-dione] here?
The value was 95 ± 2 mm Hg.

What about the pCO2 [1, 10] of the same compound?
The pCO2 was 39 ± 2 mm Hg.

What about the pH [1, 10] of the same compound?
Its pH is 7.43 ± 0.02.

And the pO2 [1, 10]?
Its pO2 is 135 ± 5 mm Hg.

And the “Mean Blood Pressure” value [1, 11]?
The value was 103 ± 3 mm Hg.

And the pCO2 [1, 11]?
Its pCO2 is 36 ± 1 mm Hg.

What about the pH [1, 11] of the same compound?
The pH was 7.44 ± 0.01.

And the pO2 [1, 11]?
Its pO2 is 134 ± 3 mm Hg.

And the “physiological variables before and after injection” value ([1]; before vs 20 min after initial treatment, 4.0 mg/kg i.p.)?
Its value is “no significant difference”.

What about the “Mean Blood Pressure” value [1, 12] of the same compound?
The value was 94 ± 3 mm Hg.

What about the pCO2 [1, 12] of the same compound?
The pCO2 was 41 ± 1 mm Hg.

What about the pH [1, 12] of the same compound?
Its pH is 7.44 ± 0.01.

What about the pO2 [1, 12] of the same compound?
Its pO2 is 134 ± 4 mm Hg.

And the “Mean Blood Pressure” value [1, 13]?
The value was 107 ± 3 mm Hg.

What about the pCO2 [1, 13] of the same compound?
Its pCO2 is 36 ± 1 mm Hg.

What about the pH [1, 13] of the same compound?
The pH was 7.46 ± 0.

And the pO2 [1, 13]?
Its pO2 is 133 ± 4 mm Hg.

And the “% Infarct volume (to the contralateral hemisphere)” value ([2]; 4.0 mg/kg i.p. 30 min before, 6 and 24 h after MCAO)?
The value was 21.5 ± 2.9%.

And the “% Infarct volume (to the contralateral hemisphere)” value ([2]; 4.0 mg/kg i.p. first dose 2 h after MCAO)?
The value was 23.1 ± 2.3%.

What about the “decrease of percent infarct volume compared with DMSO treated control group” value ([2]; delayed treated (2 h after MCAO), P=0.027) of the same compound?
The value was 34%.

What about the “decrease of percent infarct volume compared with DMSO treated control group” value ([2]; first dose 30 min before MCAO, DMSO dissolved PROG P=0.018, water soluble PROG P=0.290 (not significant)) of the same compound?
The value was 39%.

And the “effectiveness 2 hours after onset of MCAO versus prior to onset” value ([2]; 2 h after onset vs prior to onset of MCAO)?
The value was “as effective”.

What about the “absorption by the intraperitoneal route” value (4.0 mg/kg i.p., DMSO dissolved, n=2) of the same compound?
The value was “absorbed rapidly”.

And the “plasma level of PROG” value (rat, in vivo, ip, 4 mg/kg, 4 h)?
The value was 70.7 ng/mL.

And the brain edema [3]?
Its brain edema is “reduce brain edema in the early stages of ischemia”.

And the “neuroprotective activity following global cerebral ischemia” value (global cerebral ischemia)?
Its value is “exhibited neuroprotective activity following global cerebral ischemia only after a 7-day pretreatment regimen”.

And the “edema resulting from cerebral contusion” value (cerebral contusion)?
The value was “reduced edema”.

And the “passage through the blood-brain barrier” value [4]?
Its value is “easily passes through the blood-brain barrier”.

And the “GABA-mediated inhibition of neuronal activity” value (GABA receptor [5])?
Its value is “enhance GABA-mediated inhibition of neuronal activity”.

And the CNS actions ([6]; PROG and its related metabolites)?
Its CNS actions is “CNS depressants and exert anesthetic, anticonvulsant and anxiolytic actions”.

What about the anticonvulsant activity ([6]; in vivo) of the same compound?
Its anticonvulsant activity is “possesses anticonvulsant activity”.

What about the “GABA-evoked Cl currents” value (GABA receptor [7]) of the same compound?
Its value is “potentiating GABA-evoked Cl currents”.

And the concentration at 4 h (in vivo)?
Its concentration at 4 h is 41.9 ng/mL.

And the Body weight loss ([8]; 24 h after MCAO, 4.0 mg/kg i.p. first dose 30 min before MCAO, DMSO group 40.4 ± 3.4)?
Its Body weight loss is 31.1 ± 2.6 grams.

And the Body weight loss ([8]; 24 h after MCAO, 4.0 mg/kg i.p. first dose 2 h after MCAO, DMSO group 40.4 ± 3.4)?
The Body weight loss was 33.8 ± 1.9 grams.

What about the Body weight loss ([8]; 48 h after MCAO, 4.0 mg/kg i.p. first dose 30 min before MCAO, DMSO group 19.7 ± 2.9) of the same compound?
The Body weight loss was 8.8 ± 2.2 grams.

And the Body weight loss ([8]; 48 h after MCAO, 4.0 mg/kg i.p. first dose 2 h after MCAO, DMSO group 19.7 ± 2.9)?
The Body weight loss was 10.0 ± 3.1 grams.

What about the “body weight loss compared with DMSO group” value [8, 14] of the same compound?
The value was “reduced body weight loss”.

What about the “Neurologic Score” value ([9]; 24 h after MCAO, 4.0 mg/kg i.p. first dose 30 min before MCAO) of the same compound?
Its value is 1.4 ± 0.1 score.

What about the “Neurologic Score” value ([9]; 24 h after MCAO, 4.0 mg/kg i.p. first dose 2 h after MCAO) of the same compound?
Its value is 1.4 ± 0.1 score.

What about the “Neurologic Score” value ([9]; 48 h after MCAO, 4.0 mg/kg i.p. first dose 30 min before MCAO) of the same compound?
Its value is 1.4 ± 0.1 score.

What about the “Neurologic Score” value ([9]; 48 h after MCAO, 4.0 mg/kg i.p. first dose 2 h after MCAO) of the same compound?
The value was 1.4 ± 0.1 score.

What about the “neurological function compared with DMSO group” value [9, 14] of the same compound?
The value was “improved neurological function”.

Which “outcome, steroid vs non-steroid treated patients” value (stroke patients) does the source give for `C[C@H]1C[C@@H]2[C@H]([C@@H](O)C[C@@]3(C)[C@H]2CC[C@]3(O)C(=O)CO)[C@@]2(C)C=CC(=O)C=C12` [methylprednisolone] here?
The value was “no significant difference in outcome”.
